Test results from patent US12398097B2, “WDR5-MYC inhibitors” (Vanderbilt University, priority 2019, dated 2025).

Target: WDR5 (Homo sapiens, UniProt P61964)
Assay: Competition-based fluorescence polarization anisotropy assay
Details: binding to WDR5; displacement of FITC-labeled small molecule probe (analogous to Example J2 or HCH-25) or peptide probe FITC-AHx-SEEEIDVVSV; pH 6.0; Ki converted from IC50
In short: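 Ki values derive from displacement of either a fluorescent small-molecule probe or a FITC-peptide probe from WDR5, monitored by fluorescence polarization. Assay run at pH 6.0 in 200 mM phosphate with 300 mM NaCl, 0.5 mM TCEP and 0.1% Chaps.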

Ki | SMILES
10300 nM | COc1ccc(Br)cc1S(=O)(=O)Nc1cc(N2CCOCC2)cc(C(=O)O)c1O [Example J194, 3-((5-Bromo-2-methoxyphenyl)sulfonamido)-2-hydroxy-5-morpholinobenzoic acid]
940 nM | O=C(O)c1cc(-c2ccsc2)cc(NS(=O)(=O)c2cc(Br)ccc2O)c1O [Example J195, 3-((5-Bromo-2-hydroxyphenyl)sulfonamido)-2-hydroxy-5-(thiophen-3-yl)benzoic acid]
1070 nM | O=C(O)c1cc(-c2cccs2)cc(NS(=O)(=O)c2cc(Br)ccc2O)c1O [Example J196, 3-((5-bromo-2-hydroxyphenyl)sulfonamido)-2-hydroxy-5-(thiophen-2-yl)benzoic acid]
1930 nM | Cc1ccsc1-c1cc(NS(=O)(=O)c2cc(Br)ccc2O)c(O)c(C(=O)O)c1 [Example J197, 3-((5-Bromo-2-hydroxyphenyl)sulfonamido)-2-hydroxy-5-(3-methylthiophen-2-yl)benzoic acid]
1100 nM | Cc1sccc1-c1cc(NS(=O)(=O)c2cc(Br)ccc2O)c(O)c(C(=O)O)c1 [Example J198, 3-((5-Bromo-2-hydroxyphenyl)sulfonamido)-2-hydroxy-5-(2-methylthiophen-3-yl)benzoic acid]
640 nM | O=C(O)c1c(O)c(NS(=O)(=O)c2cc(Br)ccc2O)cc(-c2ccsc2)c1F [Example J199, 3-((5-Bromo-2-hydroxyphenyl)sulfonamido)-6-fluoro-2-hydroxy-5-(thiophen-3-yl)benzoic acid]
68800 nM | COc1ccc(Br)cc1S(=O)(=O)Nc1cc(Cl)cc(NC(C)=O)c1O [Example J200, N-(3-((5-Bromo-2-methoxyphenyl)sulfonamido)-5-chloro-2-hydroxyphenyl)acetamide]
700 nM | CC(C)(C)c1cc(NS(=O)(=O)c2cc(Br)ccc2O)c(O)c(C(=O)O)c1 [Example J201, 3-((5-Bromo-2-hydroxyphenyl)sulfonamido)-5-(tert-butyl)-2-hydroxybenzoic acid]
1080 nM | CNC(=O)c1cc(C(C)(C)C)cc(NS(=O)(=O)c2cc(Br)ccc2O)c1O [Example J202, 3-((5-Bromo-2-hydroxyphenyl)sulfonamido)-5-(tert-butyl)-2-hydroxy-N-methylbenzamide]
40 nM | N#CC1(c2cc(NS(=O)(=O)c3cc(Br)ccc3O)c(O)c(C(=O)O)c2)CCC1 [Example J203, 3-((5-Bromo-2-hydroxyphenyl)sulfonamido)-5-(1-cyanocyclobutyl)-2-hydroxybenzoic acid]
50 nM | COc1ccc(Br)cc1S(=O)(=O)Nc1cc(C2(C#N)CCC2)cc(C(=O)O)c1O [Example J205, 3-((5-Bromo-2-methoxyphenyl)sulfonamido)-5-(1-cyanocyclobutyl)-2-hydroxybenzoic acid]
20 nM | N#CC1(c2cc(NS(=O)(=O)c3cc(Br)cc(Cl)c3O)c(O)c(C(=O)O)c2)CCC1 [Example J206, 3-((S-Bromo-3-chloro-2-hydroxyphenyl)sulfonamido)-5-(1-cyanocyclobutyl)-2-hydroxybenzoic acid]
220 nM | COc1cc(Cl)c(Br)cc1S(=O)(=O)Nc1cc(C2(C#N)CCC2)cc(C(=O)O)c1O [Example J207, 3-((5-Bromo-4-chloro-2-methoxyphenyl)sulfonamido)-5-(1-cyanocyclobutyl)-2-hydroxybenzoic acid]
390 nM | CNC(=O)c1cc(C2(C#N)CCC2)cc(NS(=O)(=O)c2cc(Br)ccc2O)c1O [Example J208, 3-((5-Bromo-2-hydroxyphenyl)sulfonamido)-5-(1-cyanocyclobutyl)-2-hydroxy-N-methylbenzamide]
390 nM | CNC(=O)c1cc(C2(C#N)CCC2)cc(NS(=O)(=O)c2cc(Br)ccc2OC)c1O [Example J210, 3-((5-Bromo-2-methoxyphenyl)sulfonamido)-5-(1-cyanocyclobutyl)-2-hydroxy-N-methylbenzamide]
50 nM | CNC(=O)c1cc(C2(C#N)CCC2)cc(NS(=O)(=O)c2cc(Br)cc(Cl)c2O)c1O [Example J211, 3-((5-Bromo-3-chloro-2-hydroxyphenyl)sulfonamido)-5-(1-cyanocyclobutyl)-2-hydroxy-N-methylbenzamide]
260 nM | CNC(=O)c1cc(C2(C#N)CCC2)cc(NS(=O)(=O)c2cc(Br)cc(C)c2O)c1O [Example J212, 3-((5-Bromo-2-hydroxy-3-methylphenyl)sulfonamido)-5-(1-cyanocyclobutyl)-2-hydroxy-N-methylbenzamide]
12200 nM | CCc1cc(Br)cc(S(=O)(=O)Nc2cc(C3(C#N)CCC3)cc(C(=O)NC)c2O)c1O [Example J213, 3-((5-Bromo-3-ethyl-2-hydroxyphenyl)sulfonamido)-5-(1-cyanocyclobutyl)-2-hydroxy-N-methylbenzamide]

Ki | SMILES
390 nM | CNC(=O)c1cc(C2(C#N)CCC2)cc(NS(=O)(=O)c2cc(Br)cc(OC(F)(F)F)c2O)c1O [Example J214, 3-((5-Bromo-2-hydroxy-3-(trifluoromethoxy)phenyl)sulfonamido)-5-(1-cyanocyclobutyl)-2-hydroxy-N-methylbenzamide]
170 nM | CNC(=O)c1cc(C2(C#N)CCC2)cc(NS(=O)(=O)c2cc(Cl)cc(Cl)c2O)c1O [Example J216, 5-(1-Cyanocyclobutyl)-3-((3,5-dichloro-2-hydroxyphenyl)sulfonamido)-2-hydroxy-N-methylbenzamide]
420 nM | CNC(=O)c1cc(C2(C#N)CCC2)cc(NS(=O)(=O)c2cc(Br)cc3cccnc23)c1O [Example J217, 3-((6-Bromoquinoline)-8-sulfonamido)-5-(1-cyanocyclobutyl)-2-hydroxy-N-methylbenzamide]
1500 nM | N#CC1(c2cc(NS(=O)(=O)c3cc(Br)ccc3O)c(O)c(C(N)=O)c2)CCC1 [Example J218, 3-((5-Bromo-2-hydroxyphenyl)sulfonamido)-5-(1-cyanocyclobutyl)-2-hydroxybenzamide]
440 nM | COCCNC(=O)c1cc(C2(C#N)CCC2)cc(NS(=O)(=O)c2cc(Br)ccc2O)c1O [Example J219, 3-((5-Bromo-2-hydroxyphenyl)sulfonamido)-5-(1-cyanocyclobutyl)-2-hydroxy-N-(2-methoxyethyl)benzamide]
1030 nM | N#CC1(c2cc(NS(=O)(=O)c3cc(Br)ccc3O)c(O)c(C(=O)NCC3CCCO3)c2)CCC1 (centres unmarked) [Example J220, 3-((5-Bromo-2-hydroxyphenyl)sulfonamido)-5-(1-cyanocyclobutyl)-2-hydroxy-N-((tetrahydrofuran-2-yl)methyl)benzamide]
27800 nM | COC1CCN(C(=O)c2cc(C3(C#N)CCC3)cc(NS(=O)(=O)c3cc(Br)ccc3O)c2O)C1 (centres unmarked) [Example J221, 5-Bromo-N-(5-(1-cyanocyclobutyl)-2-hydroxy-3-(3-methoxypyrrolidine-1-carbonyl)phenyl)-2-hydroxybenzenesulfonamide]
410 nM | N#CC1(c2cc(NS(=O)(=O)c3cc(Br)ccc3O)c(O)c(C(=O)NCc3cc[nH]c(=O)c3)c2)CCC1 [Example J222, 3-((5-Bromo-2-hydroxyphenyl)sulfonamido)-5-(1-cyanocyclobutyl)-2-hydroxy-N-((2-oxo-1,2-dihydropyridin-4-yl)methyl)benzamide]
430 nM | COC1CN(C(=O)c2cc(C3(C#N)CCC3)cc(NS(=O)(=O)c3cc(Br)ccc3O)c2O)C1 [Example J223, 5-Bromo-N-(5-(1-cyanocyclobutyl)-2-hydroxy-3-(3-methoxyazetidine-1-carbonyl)phenyl)-2-hydroxybenzenesulfonamide]
290 nM | N#CC1(c2cc(NS(=O)(=O)c3cc(Br)ccc3O)c(O)c(C(=O)N3CC(O)C3)c2)CCC1 [Example J224, 5-Bromo-N-(5-(1-cyanocyclobutyl)-2-hydroxy-3-(3-hydroxyazetidine-1-carbonyl)phenyl)-2-hydroxybenzenesulfonamide]
860 nM | N#CC1(c2cc(NS(=O)(=O)c3cc(Br)ccc3O)c(O)c(C(=O)NCCN3CCOCC3)c2)CCC1 [Example J225, 3-((5-Bromo-2-hydroxyphenyl)sulfonamido)-5-(1-cyanocyclobutyl)-2-hydroxy-N-(2-morpholinoethyl)benzamide]
1090 nM | CN(C)CCNC(=O)c1cc(C2(C#N)CCC2)cc(NS(=O)(=O)c2cc(Br)ccc2O)c1O [Example J226, 3-((5-Bromo-2-hydroxyphenyl)sulfonamido)-5-(1-cyanocyclobutyl)-N-(2-(dimethylamino)ethyl)-2-hydroxybenzamide]
50 nM | N#CC1(c2cc(NS(=O)(=O)c3cc(Br)ccc3O)c(O)c(C(=O)Nc3nc[nH]n3)c2)CCC1 [Example J227, 3-((5-Bromo-2-hydroxyphenyl)sulfonamido)-5-(1-cyanocyclobutyl)-2-hydroxy-N-(1H-1,2,4-triazol-3-yl)benzamide]
370 nM | N#CC1(c2cc(NS(=O)(=O)c3cc(Br)ccc3O)c(O)c(C(=O)NCCO)c2)CCC1 [Example J228, 3-((5-Bromo-2-hydroxyphenyl)sulfonamido)-5-(1-cyanocyclobutyl)-2-hydroxy-N-(2-hydroxyethyl)benzamide]
850 nM | N#CC1(c2cc(NS(=O)(=O)c3cc(Br)ccc3O)c(O)c(C(=O)NCC3CCCCO3)c2)CCC1 (centres unmarked) [Example J229, 3-((5-Bromo-2-hydroxyphenyl)sulfonamido)-5-(1-cyanocyclobutyl)-2-hydroxy-N-((tetrahydro-2H-pyran-2-yl)methyl)benzamide]
630 nM | N#CC1(c2cc(NS(=O)(=O)c3cc(Br)ccc3O)c(O)c(C(=O)NCc3ccc(=O)[nH]c3)c2)CCC1 [Example J230, 3-((5-Bromo-2-hydroxyphenyl)sulfonamido)-5-(1-cyanocyclobutyl)-2-hydroxy-N-((6-oxo-1,6-dihydropyridin-3-yl)methyl)benzamide]
20 nM | N#CC1(c2cc(NS(=O)(=O)c3cc(Br)ccc3O)c(O)c(C(=O)O)c2)CCCCC1 [Example J231, 3-((5-Bromo-2-hydroxyphenyl)sulfonamido)-5-(1-cyanocyclohexyl)-2-hydroxybenzoic acid]
